How the values were obtained:
[1] = biological target: Pyruvate kinase PKLR (Homo sapiens, UniProt P30613, R510Q); experiment: Activation of PKR R510Q mutant (unknown origin) incubated for 60 mins in presence of ADP, PEP and NADH by Spectraax microplate reader based assay
[2] = biological target: Pyruvate kinase PKLR (Homo sapiens, UniProt P30613, R532W); experiment: Activation of PKR R532W mutant (unknown origin) incubated for 60 mins in presence of ADP, PEP and NADH by Spectraax microplate reader based assay
Chain of Pyruvate kinase PKLR (Homo sapiens, UniProt P30613, R532W) (P30613 whole entry R532W): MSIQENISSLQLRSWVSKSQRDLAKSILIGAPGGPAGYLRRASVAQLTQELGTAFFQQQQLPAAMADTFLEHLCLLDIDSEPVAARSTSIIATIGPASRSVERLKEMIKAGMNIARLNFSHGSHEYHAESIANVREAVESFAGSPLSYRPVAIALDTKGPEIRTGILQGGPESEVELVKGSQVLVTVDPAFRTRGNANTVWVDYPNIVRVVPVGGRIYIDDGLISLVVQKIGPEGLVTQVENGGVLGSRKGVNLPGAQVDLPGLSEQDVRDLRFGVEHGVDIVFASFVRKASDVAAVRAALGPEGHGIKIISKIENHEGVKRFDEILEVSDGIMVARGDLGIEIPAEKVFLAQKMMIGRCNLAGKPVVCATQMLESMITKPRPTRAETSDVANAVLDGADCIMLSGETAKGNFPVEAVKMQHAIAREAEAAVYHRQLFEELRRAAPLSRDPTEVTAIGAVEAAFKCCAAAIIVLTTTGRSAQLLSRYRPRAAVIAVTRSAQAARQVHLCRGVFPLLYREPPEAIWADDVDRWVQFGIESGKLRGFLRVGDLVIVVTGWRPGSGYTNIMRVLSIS

[3] = biological target: T1, Pyruvate kinase PKLR (Homo sapiens, UniProt P30613); experiment: Activation of wild type PKR (unknown origin) incubated for 60 mins in presence of ADP, PEP and NADH by Spectraax microplate reader based assay
T1 sequence (P30613 whole entry): as the sequence (P30613 whole entry R532W) above, with W532R counted along it

[4] = biological target: T1, Pyruvate kinase PKLR; experiment: Activation of wild type PKR (unknown origin) by cell based assay

Chain of Pyruvate kinase PKLR (Homo sapiens, UniProt P30613, R510Q) (P30613 whole entry R510Q): as the sequence (P30613 whole entry R532W) above, with R510Q, W532R counted along it

O=C(c1ccc(NS(=O)(=O)c2cccc3cccnc23)cc1)N1CCC(O)(c2cccc(F)c2F)CC1
AC50 [1]: < 100 nM
AC50 [2]: < 100 nM
AC50 [3]: < 100 nM
AC50 [4]: < 100 nM

Cc1cc(C(=O)N2CCC(O)(c3ccccc3Cl)CC2)ccc1NS(=O)(=O)c1cccc2nccnc12
AC50 [1]: < 100 nM
AC50 [2]: < 100 nM
AC50 [3]: < 100 nM
AC50 [4]: < 100 nM

CC(C)CC1(O)CCN(C(=O)c2ccc(NS(=O)(=O)c3cccc4ccc(N)nc34)cc2)CC1
AC50 [1]: < 100 nM
AC50 [2]: < 100 nM
AC50 [3]: < 100 nM
AC50 [4]: < 100 nM

CC(C)CC1(O)CCN(C(=O)c2ccc(NS(=O)(=O)c3cccc4nccnc34)cc2)CC1
AC50 [1]: < 100 nM
AC50 [2]: < 100 nM
AC50 [3]: < 100 nM
AC50 [4]: < 100 nM

O=C(c1ccc(NS(=O)(=O)c2cccc3cccnc23)cc1)N1CCC(O)(Cc2ccccc2)CC1
AC50 [1]: < 100 nM
AC50 [2]: < 100 nM
AC50 [3]: < 100 nM
AC50 [4]: < 100 nM

Nc1cnc2c(S(=O)(=O)Nc3ccc(C(=O)N4CCC(O)(c5cccc(F)c5F)CC4)cc3)cccc2n1
AC50 [1]: < 100 nM
AC50 [2]: < 100 nM
AC50 [3]: < 100 nM
AC50 [4]: < 100 nM

O=C(c1ccc(NS(=O)(=O)c2cccc3cccnc23)c(F)c1)N1CCC(O)(c2ccccc2Cl)CC1
AC50 [1]: < 100 nM
AC50 [2]: < 100 nM
AC50 [3]: < 100 nM
AC50 [4]: < 100 nM

O=C(c1ccc(NS(=O)(=O)c2cccc3c2OCCC3)cc1)N1CCC(O)(c2ccccc2Cl)CC1
AC50 [1]: < 100 nM
AC50 [2]: < 100 nM
AC50 [3]: < 100 nM
AC50 [4]: < 100 nM

COc1ccccc1CC1(O)CCN(C(=O)c2ccc(NS(=O)(=O)c3cccc4cccnc34)cc2)CC1
AC50 [1]: < 100 nM
AC50 [2]: < 100 nM
AC50 [3]: < 100 nM
AC50 [4]: < 100 nM

O=C(c1ccc(NS(=O)(=O)c2cccc3scnc23)cc1)N1CCC(O)(Cc2ccccc2C(F)(F)F)CC1
AC50 [1]: < 100 nM
AC50 [2]: < 100 nM
AC50 [3]: < 100 nM
AC50 [4]: < 100 nM

O=C(c1ccc(NS(=O)(=O)c2cccc3cccnc23)cc1)N1CCC(O)(Cc2ccccc2F)CC1
AC50 [1]: < 100 nM
AC50 [2]: < 100 nM
AC50 [3]: < 100 nM
AC50 [4]: < 100 nM

Cc1cc(F)ccc1C1(O)CCN(C(=O)c2ccc(NS(=O)(=O)c3cccc4cccnc34)cc2)CC1
AC50 [1]: < 100 nM
AC50 [2]: < 100 nM
AC50 [3]: < 100 nM
AC50 [4]: < 100 nM

Nc1nc2c(S(=O)(=O)Nc3ccc(C(=O)N4CCC(O)(CCCC(F)(F)F)CC4)cc3)cccc2s1
AC50 [1]: < 100 nM
AC50 [2]: < 100 nM
AC50 [3]: < 100 nM
AC50 [4]: < 100 nM

Cc1ccccc1C1(O)CCN(C(=O)c2ccc(NS(=O)(=O)c3cccc4cccnc34)cc2)CC1
AC50 [1]: < 100 nM
AC50 [2]: < 100 nM
AC50 [3]: < 100 nM
AC50 [4]: < 100 nM

CC(C)(C)CC1(O)CCN(C(=O)c2ccc(NS(=O)(=O)c3cccc4scnc34)cc2)CC1
AC50 [1]: < 100 nM
AC50 [2]: < 100 nM
AC50 [3]: < 100 nM
AC50 [4]: < 100 nM

CCCCC1(O)CCN(C(=O)c2ccc(NS(=O)(=O)c3cccc4cccnc34)cc2)CC1
AC50 [1]: < 100 nM
AC50 [2]: < 100 nM
AC50 [3]: < 100 nM
AC50 [4]: < 100 nM

O=C(c1ccc(NS(=O)(=O)c2cccc3cccnc23)cc1)N1CCC(O)(Cc2c(F)cccc2F)CC1
AC50 [1]: < 100 nM
AC50 [2]: < 100 nM
AC50 [3]: < 100 nM
AC50 [4]: < 100 nM

O=C(c1ccc(NS(=O)(=O)c2cccc3cccnc23)cc1)N1CCC(O)(c2ccc(F)c(Br)n2)CC1
AC50 [1]: < 100 nM
AC50 [2]: < 100 nM
AC50 [3]: < 100 nM
AC50 [4]: < 100 nM

CC(CC1(O)CCN(C(=O)c2ccc(NS(=O)(=O)c3cccc4scnc34)cc2)CC1)C(F)(F)F (stereo not drawn)
AC50 [1]: < 100 nM
AC50 [2]: < 100 nM
AC50 [3]: < 100 nM
AC50 [4]: < 100 nM

CC1(CC2(O)CCN(C(=O)c3ccc(NS(=O)(=O)c4cccc5cccnc45)cc3)CC2)CC1
AC50 [1]: < 100 nM
AC50 [2]: < 100 nM
AC50 [3]: < 100 nM
AC50 [4]: < 100 nM

CC(C)CC1(O)CCN(C(=O)c2ccc(NS(=O)(=O)c3cc(F)cc4sc(N)nc34)cc2)CC1
AC50 [1]: < 100 nM
AC50 [2]: < 100 nM
AC50 [3]: < 100 nM
AC50 [4]: < 100 nM

CC(C)CC1(O)CCN(C(=O)c2ccc(NS(=O)(=O)c3cccc4sc(N)nc34)cc2)CC1
AC50 [1]: < 100 nM
AC50 [2]: < 100 nM
AC50 [3]: < 100 nM
AC50 [4]: < 100 nM

CC(CC1(O)CCN(C(=O)c2ccc(NS(=O)(=O)c3cccc4sc(N)nc34)cc2)CC1)C(F)(F)F (stereo not drawn)
AC50 [1]: < 100 nM
AC50 [2]: < 100 nM
AC50 [3]: < 100 nM
AC50 [4]: < 100 nM

CC(C)CC1(CO)CCN(C(=O)c2ccc(NS(=O)(=O)c3cccc4cccnc34)cc2)CC1
AC50 [1]: < 100 nM
AC50 [2]: < 100 nM
AC50 [3]: < 100 nM
AC50 [4]: < 100 nM

CNc1nc2c(S(=O)(=O)Nc3ccc(C(=O)N4CCC(O)(CC(C)C)CC4)cc3)cccc2s1
AC50 [1]: < 100 nM
AC50 [2]: < 100 nM
AC50 [3]: < 100 nM
AC50 [4]: < 100 nM

O=C(c1ccc(NS(=O)(=O)c2cccc3cccnc23)cc1)N1CCC(O)(c2ccccc2Cl)CC1
AC50 [1]: < 100 nM
AC50 [2]: < 100 nM
AC50 [3]: < 100 nM
AC50 [4]: < 100 nM

O=C(c1ccc(NS(=O)(=O)c2cccc3cccnc23)cc1F)N1CCC(O)(Cc2ccccc2)CC1
AC50 [1]: < 100 nM
AC50 [2]: < 100 nM
AC50 [3]: < 100 nM
AC50 [4]: < 100 nM

CC(C)CC1(C=O)CCN(C(=O)c2ccc(NS(=O)(=O)c3cccc4cccnc34)cc2)CC1
AC50 [1]: < 100 nM
AC50 [2]: < 100 nM
AC50 [3]: < 100 nM
AC50 [4]: < 100 nM

CC(C)(C)CC1(O)CCN(C(=O)c2ccc(NS(=O)(=O)c3cccc4nccnc34)cc2)CC1
AC50 [1]: < 100 nM
AC50 [2]: < 100 nM
AC50 [3]: < 100 nM
AC50 [4]: < 100 nM

C=C(CC1(O)CCN(C(=O)c2ccc(NS(=O)(=O)c3cccc4scnc34)cc2)CC1)C(F)(F)F
AC50 [1]: < 100 nM
AC50 [2]: < 100 nM
AC50 [3]: < 100 nM
AC50 [4]: < 100 nM

Nc1nc2c(S(=O)(=O)Nc3ccc(C(=O)N4CCC(O)(c5ccccc5Cl)CC4)cc3)cc(F)cc2s1
AC50 [1]: < 100 nM
AC50 [2]: < 100 nM
AC50 [3]: < 100 nM
AC50 [4]: < 100 nM

O=C(c1ccc(NS(=O)(=O)c2cccc3cccnc23)cc1)N1CCC(O)(CC2CC2)CC1
AC50 [1]: < 100 nM
AC50 [2]: < 100 nM
AC50 [3]: < 100 nM
AC50 [4]: < 100 nM

Cc1cc(C(=O)N2CCC(O)(c3cccc(Cl)c3)CC2)ccc1NS(=O)(=O)c1cccc2cccnc12
AC50 [1]: ≤ 1000 nM
AC50 [2]: < 100 nM
AC50 [3]: < 100 nM
AC50 [4]: < 100 nM

O=C(c1ccc(NS(=O)(=O)c2cccc3c(O)ncnc23)cc1)N1CCC(O)(CCCC(F)(F)F)CC1
AC50 [1]: < 100 nM
AC50 [2]: < 100 nM
AC50 [3]: < 100 nM
AC50 [4]: < 100 nM

Nc1cnc2c(S(=O)(=O)Nc3ccc(C(=O)N4CCC(O)(CCCC(F)(F)F)CC4)cc3)cccc2n1
AC50 [1]: < 100 nM
AC50 [2]: < 100 nM
AC50 [3]: < 100 nM
AC50 [4]: < 100 nM

CC(C)CC1(O)CCN(C(=O)c2ccc(NS(=O)(=O)c3cccc4nc(N)cnc34)cc2)CC1
AC50 [1]: < 100 nM
AC50 [2]: < 100 nM
AC50 [3]: < 100 nM
AC50 [4]: < 100 nM

CC(C)CC1(O)CCN(C(=O)c2ccc(NS(=O)(=O)c3cccc4cccnc34)cc2)CC1
AC50 [1]: < 100 nM
AC50 [2]: < 100 nM
AC50 [3]: < 100 nM
AC50 [4]: < 100 nM

CC(C)CC1(O)CCN(C(=O)c2ccc(NS(=O)(=O)c3cccc4c(O)ncnc34)cc2)CC1
AC50 [1]: < 100 nM
AC50 [2]: < 100 nM
AC50 [3]: < 100 nM
AC50 [4]: < 100 nM

Nc1nc2c(S(=O)(=O)Nc3ccc(C(=O)N4CCC(O)(/C=C/CC(F)(F)F)CC4)cc3)cccc2s1
AC50 [1]: < 100 nM
AC50 [3]: < 100 nM
AC50 [4]: < 100 nM

O=C(c1ccc(NS(=O)(=O)c2cccc3cccnc23)cc1)N1CCC(O)(Cc2ccccc2C(F)(F)F)CC1
AC50 [1]: < 100 nM
AC50 [2]: < 100 nM
AC50 [3]: < 100 nM
AC50 [4]: < 100 nM

CCc1ccccc1C1(O)CCN(C(=O)c2ccc(NS(=O)(=O)c3cccc4cccnc34)cc2)CC1
AC50 [1]: < 100 nM
AC50 [2]: < 100 nM
AC50 [3]: < 100 nM
AC50 [4]: < 100 nM

CC(C)CC1(O)CCN(C(=O)c2ccc(NS(=O)(=O)c3cccc4ncc(N)nc34)cc2)CC1
AC50 [1]: < 100 nM
AC50 [2]: < 100 nM
AC50 [3]: < 100 nM
AC50 [4]: < 100 nM

O=C(c1ccc(NS(=O)(=O)c2cccc3cc(F)cnc23)cc1)N1CCC(O)(Cc2ccccc2)CC1
AC50 [1]: < 100 nM
AC50 [2]: < 100 nM
AC50 [3]: < 100 nM
AC50 [4]: < 100 nM

CC(C)CCC1(O)CCN(C(=O)c2ccc(NS(=O)(=O)c3cccc4scnc34)cc2)CC1
AC50 [1]: < 100 nM
AC50 [2]: < 100 nM
AC50 [3]: < 100 nM
AC50 [4]: < 100 nM

CC(C)(C)CC1(O)CCN(C(=O)c2ccc(NS(=O)(=O)c3cccc4cccnc34)cc2)CC1
AC50 [1]: < 100 nM
AC50 [2]: < 100 nM
AC50 [3]: < 100 nM
AC50 [4]: < 100 nM

O=C(c1ccc(NS(=O)(=O)c2cccc3cccnc23)cc1)N1CCC(O)(c2ccc(F)cc2Cl)CC1
AC50 [1]: < 100 nM
AC50 [2]: < 100 nM
AC50 [3]: < 100 nM
AC50 [4]: < 100 nM

O=C(c1ccc(NS(=O)(=O)c2cccc3nccnc23)cc1)N1CCC(O)(CCCC(F)(F)F)CC1
AC50 [1]: < 100 nM
AC50 [2]: < 100 nM
AC50 [3]: < 100 nM
AC50 [4]: < 100 nM

O=C(c1ccc(NS(=O)(=O)c2cccc3cccnc23)cc1)N1CCC(O)(c2ccccc2C(F)F)CC1
AC50 [1]: < 100 nM
AC50 [2]: < 100 nM
AC50 [3]: < 100 nM
AC50 [4]: < 100 nM

O=C(c1ccc(NS(=O)(=O)c2cccc3cccnc23)cc1)N1CCC(O)(Cc2cccc(F)c2)CC1
AC50 [1]: < 100 nM
AC50 [2]: < 100 nM
AC50 [3]: < 100 nM
AC50 [4]: < 100 nM

O=C(c1ccc(NS(=O)(=O)c2cccc3cccnc23)cc1)N1CCC(O)(c2ccccc2C(F)(F)F)CC1
AC50 [1]: < 100 nM
AC50 [2]: < 100 nM
AC50 [3]: < 100 nM
AC50 [4]: < 100 nM

O=C(c1ccc(NS(=O)(=O)c2ccc(F)c3nccnc23)cc1)N1CCC(O)(c2cccc(F)c2F)CC1
AC50 [1]: ≤ 1000 nM
AC50 [2]: < 100 nM
AC50 [3]: < 100 nM
AC50 [4]: ≥ 1010 nM

From ChEMBL document CHEMBL3727356, “Therapeutic compounds and compositions” (2014)
